Measurements published in ChEMBL document CHEMBL4507269, “Data for DCP probe BAY-386” (2021).

Legend:
[1] = system: Mast/stem cell growth factor receptor Kit (Homo sapiens), P10721 [V559D,T670I]; conditions: Compound concentration 1000.0 nM
[2] = target: Ephrin type-A receptor 1 (Homo sapiens) (UniProt P21709); conditions: Compound concentration 1000.0 nM
[3] = target: Tyrosine-protein kinase Fer (Homo sapiens) (UniProt P16591); conditions: Compound concentration 1000.0 nM
[4] = target: Tyrosine-protein kinase JAK3 (Homo sapiens) (UniProt P52333); conditions: Compound concentration 1000.0 nM
[5] = system: Tyrosine-protein kinase ABL1 (Homo sapiens), P00519 [Q252H]; conditions: Compound concentration 1000.0 nM
[6] = target: Calcium/calmodulin-dependent protein kinase type 1G (Homo sapiens) (UniProt Q96NX5); conditions: Compound concentration 1000.0 nM
[7] = system: Mast/stem cell growth factor receptor Kit (Homo sapiens), P10721 [A829P]; conditions: Compound concentration 1000.0 nM
[8] = target: Serine/threonine-protein kinase 35 (Homo sapiens) (UniProt Q8TDR2); conditions: Compound concentration 1000.0 nM
[9] = target: 3-phosphoinositide-dependent protein kinase 1 (Homo sapiens) (UniProt O15530); conditions: Compound concentration 1000.0 nM
[10] = target: Ribosomal protein S6 kinase alpha-3 (Homo sapiens) (UniProt P51812); conditions: Compound concentration 1000.0 nM
[11] = target: Serine/threonine-protein kinase Nek7 (Homo sapiens) (UniProt Q8TDX7); conditions: Compound concentration 1000.0 nM
[12] = target: Rhodopsin kinase GRK1 (Homo sapiens) (UniProt Q15835); conditions: Compound concentration 1000.0 nM
[13] = system: Tyrosine-protein kinase ABL1 (Homo sapiens), P00519 [Y253F]; conditions: Compound concentration 1000.0 nM
[14] = target: Calcium/calmodulin-dependent protein kinase kinase 1 (Homo sapiens) (UniProt Q8N5S9); conditions: Compound concentration 1000.0 nM
[15] = target: Protein-tyrosine kinase 2-beta (Homo sapiens) (UniProt Q14289); conditions: Compound concentration 1000.0 nM
[16] = target: Tyrosine-protein kinase Fgr (Homo sapiens) (UniProt P09769); conditions: Compound concentration 1000.0 nM
[17] = target: High affinity nerve growth factor receptor (Homo sapiens) (UniProt P04629); conditions: Compound concentration 1000.0 nM
[18] = system: Epidermal growth factor receptor (Homo sapiens), P00533 [G719C]; conditions: Compound concentration 1000.0 nM
[19] = target: Serine/threonine-protein kinase 26 (Homo sapiens) (UniProt Q9P289); conditions: Compound concentration 1000.0 nM
[20] = target: Inhibitor of nuclear factor kappa-B kinase subunit alpha (Homo sapiens) (UniProt O15111); conditions: Compound concentration 1000.0 nM
[21] = system: Epidermal growth factor receptor (Homo sapiens), P00533 [UNDEFINED MUTATION]; conditions: Compound concentration 1000.0 nM
[22] = target: Phosphatidylinositol 4-kinase beta (Homo sapiens) (UniProt Q9UBF8); conditions: Compound concentration 1000.0 nM
[23] = target: Tyrosine-protein kinase JAK1 (Homo sapiens) (UniProt P23458); conditions: Compound concentration 1000.0 nM
[24] = target: Homeodomain-interacting protein kinase 3 (Homo sapiens) (UniProt Q9H422); conditions: Compound concentration 1000.0 nM
[25] = target: T1, Alpha-1A adrenergic receptor (Homo sapiens) (UniProt P35348); experiment: alpha1A (h) Eurofins-Cerep Cellular and Nuclear Receptor Functional Assays; conditions: Compound concentration 10.0 uM
T1 sequence (whole entry): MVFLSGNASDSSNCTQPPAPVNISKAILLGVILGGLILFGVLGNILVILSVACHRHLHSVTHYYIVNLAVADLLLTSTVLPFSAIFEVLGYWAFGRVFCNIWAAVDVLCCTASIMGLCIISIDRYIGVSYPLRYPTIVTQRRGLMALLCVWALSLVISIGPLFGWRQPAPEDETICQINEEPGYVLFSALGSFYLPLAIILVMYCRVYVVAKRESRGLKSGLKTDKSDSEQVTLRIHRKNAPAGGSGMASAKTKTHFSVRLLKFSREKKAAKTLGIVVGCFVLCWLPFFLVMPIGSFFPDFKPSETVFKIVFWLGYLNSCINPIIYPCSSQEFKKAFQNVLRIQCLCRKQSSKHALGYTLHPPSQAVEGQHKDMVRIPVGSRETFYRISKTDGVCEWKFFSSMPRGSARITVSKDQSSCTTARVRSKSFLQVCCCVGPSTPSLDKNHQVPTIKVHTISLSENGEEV

[26] = target: 5-hydroxytryptamine receptor 1B (Homo sapiens) (UniProt P28222); conditions: Compound concentration 10.0 uM
[27] = target: Mitogen-activated protein kinase kinase kinase 3 (Homo sapiens) (UniProt Q99759); conditions: Compound concentration 1000.0 nM
[28] = target: Casein kinase I isoform alpha-like (Homo sapiens) (UniProt Q8N752); conditions: Compound concentration 1000.0 nM
[29] = target: Serine/threonine-protein kinase Chk2 (Homo sapiens) (UniProt O96017); conditions: Compound concentration 1000.0 nM
[30] = system: Receptor-type tyrosine-protein kinase FLT3 (Homo sapiens), P36888 [D835V]; conditions: Compound concentration 1000.0 nM
[31] = target: Serine/threonine-protein kinase Nek3 (Homo sapiens) (UniProt P51956); conditions: Compound concentration 1000.0 nM
[32] = target: Mitogen-activated protein kinase 10 (Homo sapiens) (UniProt P53779); conditions: Compound concentration 1000.0 nM
[33] = target: Serine/threonine-protein kinase 10 (Homo sapiens) (UniProt O94804); conditions: Compound concentration 1000.0 nM
[34] = target: Histamine H2 receptor (Homo sapiens) (UniProt P25021); experiment: H2 (h) Eurofins-Cerep Cellular and Nuclear Receptor Functional Assays; conditions: Compound concentration 10.0 uM
[35] = target: Serine/threonine-protein kinase STK11 (Homo sapiens) (UniProt Q15831); conditions: Compound concentration 1000.0 nM
[36] = target: Protein kinase C epsilon type (Homo sapiens) (UniProt Q02156); conditions: Compound concentration 1000.0 nM
[37] = target: SRSF protein kinase 3 (Homo sapiens) (UniProt Q9UPE1); conditions: Compound concentration 1000.0 nM
[38] = target: Mitogen-activated protein kinase kinase kinase 9 (Homo sapiens) (UniProt P80192); conditions: Compound concentration 1000.0 nM

Histamine H2 receptor (Homo sapiens), sequence (P25021 whole entry): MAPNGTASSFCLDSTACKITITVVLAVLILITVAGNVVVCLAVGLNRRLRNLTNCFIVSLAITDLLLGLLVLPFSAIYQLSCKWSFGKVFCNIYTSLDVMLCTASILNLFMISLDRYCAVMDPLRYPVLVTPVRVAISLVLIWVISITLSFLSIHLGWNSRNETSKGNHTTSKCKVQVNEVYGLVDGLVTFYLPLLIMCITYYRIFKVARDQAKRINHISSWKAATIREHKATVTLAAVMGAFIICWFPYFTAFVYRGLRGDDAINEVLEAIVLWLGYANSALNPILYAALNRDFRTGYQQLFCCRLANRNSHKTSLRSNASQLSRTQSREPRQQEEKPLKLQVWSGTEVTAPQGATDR
Mast/stem cell growth factor receptor Kit (Homo sapiens), P10721 [V559D,T670I], sequence (P10721 whole entry V559D/T670I): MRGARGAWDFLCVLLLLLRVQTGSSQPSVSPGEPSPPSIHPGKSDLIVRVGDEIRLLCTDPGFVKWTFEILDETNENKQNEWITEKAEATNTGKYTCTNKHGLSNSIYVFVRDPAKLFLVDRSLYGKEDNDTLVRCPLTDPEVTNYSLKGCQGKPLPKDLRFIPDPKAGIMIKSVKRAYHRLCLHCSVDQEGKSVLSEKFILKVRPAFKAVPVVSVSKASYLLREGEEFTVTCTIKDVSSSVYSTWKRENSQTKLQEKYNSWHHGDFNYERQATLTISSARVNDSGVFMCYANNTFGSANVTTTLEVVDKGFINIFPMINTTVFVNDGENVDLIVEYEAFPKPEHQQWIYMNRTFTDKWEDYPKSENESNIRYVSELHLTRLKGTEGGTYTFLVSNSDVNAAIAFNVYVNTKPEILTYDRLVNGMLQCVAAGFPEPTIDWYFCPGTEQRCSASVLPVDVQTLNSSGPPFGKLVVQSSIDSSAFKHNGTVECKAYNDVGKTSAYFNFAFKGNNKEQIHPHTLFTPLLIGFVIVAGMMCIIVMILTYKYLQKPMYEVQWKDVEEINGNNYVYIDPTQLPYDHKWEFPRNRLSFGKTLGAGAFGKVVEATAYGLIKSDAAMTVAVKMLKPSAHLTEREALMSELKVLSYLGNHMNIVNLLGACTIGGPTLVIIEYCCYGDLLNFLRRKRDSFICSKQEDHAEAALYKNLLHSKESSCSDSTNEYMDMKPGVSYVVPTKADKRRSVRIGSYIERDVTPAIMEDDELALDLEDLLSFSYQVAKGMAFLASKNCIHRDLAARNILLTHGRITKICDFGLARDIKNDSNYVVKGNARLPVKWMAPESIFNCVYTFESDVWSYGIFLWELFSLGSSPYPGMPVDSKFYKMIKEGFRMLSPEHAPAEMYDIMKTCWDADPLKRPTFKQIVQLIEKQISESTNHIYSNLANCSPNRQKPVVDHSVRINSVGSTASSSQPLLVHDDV
Homeodomain-interacting protein kinase 3 (Homo sapiens), sequence (Q9H422 whole entry, looked up): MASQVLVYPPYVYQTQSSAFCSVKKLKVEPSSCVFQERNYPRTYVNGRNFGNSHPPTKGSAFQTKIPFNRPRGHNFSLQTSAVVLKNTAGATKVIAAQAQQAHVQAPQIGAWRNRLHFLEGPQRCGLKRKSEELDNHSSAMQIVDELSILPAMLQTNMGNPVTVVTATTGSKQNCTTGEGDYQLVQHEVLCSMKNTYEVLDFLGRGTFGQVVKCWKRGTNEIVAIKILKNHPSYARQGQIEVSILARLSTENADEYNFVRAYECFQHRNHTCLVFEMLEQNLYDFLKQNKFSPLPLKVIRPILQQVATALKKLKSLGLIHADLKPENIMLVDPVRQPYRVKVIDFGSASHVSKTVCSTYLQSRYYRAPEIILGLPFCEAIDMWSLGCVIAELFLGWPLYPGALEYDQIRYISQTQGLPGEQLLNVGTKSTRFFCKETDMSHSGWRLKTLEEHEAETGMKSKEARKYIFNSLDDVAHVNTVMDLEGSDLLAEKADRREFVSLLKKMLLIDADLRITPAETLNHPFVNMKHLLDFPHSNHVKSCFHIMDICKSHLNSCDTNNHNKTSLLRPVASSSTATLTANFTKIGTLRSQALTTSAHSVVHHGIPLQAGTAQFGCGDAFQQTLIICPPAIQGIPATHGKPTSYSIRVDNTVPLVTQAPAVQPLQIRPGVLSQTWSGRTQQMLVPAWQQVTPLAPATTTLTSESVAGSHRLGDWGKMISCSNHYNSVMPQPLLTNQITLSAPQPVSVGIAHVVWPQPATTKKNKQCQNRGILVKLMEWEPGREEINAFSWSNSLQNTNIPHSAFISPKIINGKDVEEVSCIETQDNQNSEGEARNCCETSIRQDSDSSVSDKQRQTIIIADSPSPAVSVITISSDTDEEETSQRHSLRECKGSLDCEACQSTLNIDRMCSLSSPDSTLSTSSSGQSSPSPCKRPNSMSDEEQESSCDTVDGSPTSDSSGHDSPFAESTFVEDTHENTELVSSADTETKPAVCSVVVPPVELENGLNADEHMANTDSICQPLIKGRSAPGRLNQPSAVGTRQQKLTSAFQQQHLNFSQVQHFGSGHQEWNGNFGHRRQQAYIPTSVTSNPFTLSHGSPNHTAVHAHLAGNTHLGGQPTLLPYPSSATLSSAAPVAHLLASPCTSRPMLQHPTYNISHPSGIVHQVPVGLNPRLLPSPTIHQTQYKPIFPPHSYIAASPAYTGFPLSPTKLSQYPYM
Inhibitor of nuclear factor kappa-B kinase subunit alpha (Homo sapiens), sequence (O15111 whole entry): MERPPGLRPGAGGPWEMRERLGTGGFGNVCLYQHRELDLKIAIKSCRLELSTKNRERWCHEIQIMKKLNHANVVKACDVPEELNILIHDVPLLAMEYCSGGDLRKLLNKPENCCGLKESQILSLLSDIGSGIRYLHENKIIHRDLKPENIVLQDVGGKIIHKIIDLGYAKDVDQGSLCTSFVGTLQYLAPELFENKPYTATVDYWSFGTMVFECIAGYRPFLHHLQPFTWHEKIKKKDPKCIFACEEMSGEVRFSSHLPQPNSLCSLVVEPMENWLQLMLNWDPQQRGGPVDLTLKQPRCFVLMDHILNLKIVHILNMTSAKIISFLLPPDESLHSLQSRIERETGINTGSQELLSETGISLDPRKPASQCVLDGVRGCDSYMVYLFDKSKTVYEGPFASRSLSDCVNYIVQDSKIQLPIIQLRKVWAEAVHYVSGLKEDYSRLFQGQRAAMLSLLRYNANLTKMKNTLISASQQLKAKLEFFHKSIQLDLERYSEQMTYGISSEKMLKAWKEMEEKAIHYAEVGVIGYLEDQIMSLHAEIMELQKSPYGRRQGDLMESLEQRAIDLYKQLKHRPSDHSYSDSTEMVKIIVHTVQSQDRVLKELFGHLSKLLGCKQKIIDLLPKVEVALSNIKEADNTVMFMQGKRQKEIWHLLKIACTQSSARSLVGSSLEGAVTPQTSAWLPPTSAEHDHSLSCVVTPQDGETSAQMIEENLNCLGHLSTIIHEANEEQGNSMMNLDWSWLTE
Tyrosine-protein kinase Fer (Homo sapiens), sequence (P16591 whole entry, looked up): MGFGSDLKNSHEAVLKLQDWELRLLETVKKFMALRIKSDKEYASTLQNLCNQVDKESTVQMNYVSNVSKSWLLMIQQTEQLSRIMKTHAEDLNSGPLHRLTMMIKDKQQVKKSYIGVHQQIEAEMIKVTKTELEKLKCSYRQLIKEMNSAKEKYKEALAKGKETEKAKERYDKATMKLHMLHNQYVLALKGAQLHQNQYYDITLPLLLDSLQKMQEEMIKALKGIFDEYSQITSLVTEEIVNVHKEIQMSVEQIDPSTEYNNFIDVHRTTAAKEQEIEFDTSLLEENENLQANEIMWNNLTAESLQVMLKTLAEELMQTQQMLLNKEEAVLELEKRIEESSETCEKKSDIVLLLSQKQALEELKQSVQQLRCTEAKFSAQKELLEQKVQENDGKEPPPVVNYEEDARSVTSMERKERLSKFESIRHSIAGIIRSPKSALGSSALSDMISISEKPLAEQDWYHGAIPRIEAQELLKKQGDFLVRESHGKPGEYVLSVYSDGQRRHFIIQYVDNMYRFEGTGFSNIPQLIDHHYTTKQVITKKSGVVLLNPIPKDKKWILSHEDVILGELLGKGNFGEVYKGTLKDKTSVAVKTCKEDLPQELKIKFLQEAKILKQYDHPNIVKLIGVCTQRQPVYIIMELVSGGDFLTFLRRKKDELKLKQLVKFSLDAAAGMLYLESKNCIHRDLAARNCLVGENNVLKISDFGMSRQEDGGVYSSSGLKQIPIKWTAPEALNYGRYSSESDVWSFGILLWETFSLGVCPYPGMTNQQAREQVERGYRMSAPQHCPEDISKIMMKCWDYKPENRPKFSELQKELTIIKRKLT
Mitogen-activated protein kinase kinase kinase 3 (Homo sapiens), sequence (Q99759 whole entry, canonical isoform): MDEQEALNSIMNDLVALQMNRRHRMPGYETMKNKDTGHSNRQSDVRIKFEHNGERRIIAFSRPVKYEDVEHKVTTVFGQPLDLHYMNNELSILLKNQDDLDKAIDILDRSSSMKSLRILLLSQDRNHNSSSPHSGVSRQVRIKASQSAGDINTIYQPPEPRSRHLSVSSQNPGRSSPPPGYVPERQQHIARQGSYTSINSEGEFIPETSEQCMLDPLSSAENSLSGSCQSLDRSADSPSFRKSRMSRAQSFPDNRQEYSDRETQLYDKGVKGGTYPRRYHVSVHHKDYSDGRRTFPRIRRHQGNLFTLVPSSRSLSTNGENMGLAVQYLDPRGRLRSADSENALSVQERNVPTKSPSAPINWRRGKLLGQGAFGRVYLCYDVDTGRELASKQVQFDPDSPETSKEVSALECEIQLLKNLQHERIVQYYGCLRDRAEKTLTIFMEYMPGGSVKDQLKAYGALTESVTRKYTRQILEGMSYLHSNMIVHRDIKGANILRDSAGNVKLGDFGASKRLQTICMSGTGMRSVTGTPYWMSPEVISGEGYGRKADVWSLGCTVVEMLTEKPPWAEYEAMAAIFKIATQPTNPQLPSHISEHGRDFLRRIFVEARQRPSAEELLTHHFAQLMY
Serine/threonine-protein kinase Nek7 (Homo sapiens), sequence (Q8TDX7 whole entry, looked up): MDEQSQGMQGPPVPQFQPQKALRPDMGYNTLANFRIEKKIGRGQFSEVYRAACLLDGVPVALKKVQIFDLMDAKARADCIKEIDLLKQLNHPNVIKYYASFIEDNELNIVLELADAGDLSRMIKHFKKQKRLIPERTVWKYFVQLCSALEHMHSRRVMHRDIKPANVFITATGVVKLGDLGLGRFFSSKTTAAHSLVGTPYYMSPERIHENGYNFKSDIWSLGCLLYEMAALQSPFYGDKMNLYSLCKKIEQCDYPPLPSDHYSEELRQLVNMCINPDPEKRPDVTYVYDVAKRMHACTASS

SMILES	residual activity [1] [%]	residual activity [2] [%]	residual activity [3] [%]	residual activity [4] [%]	residual activity [5] [%]	residual activity [6] [%]	residual activity [7] [%]	residual activity [8] [%]	residual activity [9] [%]	residual activity [10] [%]	residual activity [11] [%]	residual activity [12] [%]	residual activity [13] [%]	residual activity [14] [%]	residual activity [15] [%]	residual activity [16] [%]	residual activity [17] [%]	residual activity [18] [%]	residual activity [19] [%]	residual activity [20] [%]	further results
Cc1noc([C@H]2C[C@@H](c3ccc(C(F)(F)F)cc3)CN(C(=O)N3CCS(=O)(=O)C3)C2)n1 [BAY-448]	100	89	82	100	100	100	100	99	95	100	100	82	100	100	100	100	90	100	74	100	residual activity [21]: 84%; residual activity [22]: 93%; residual activity [23]: 74%; residual activity [24]: 96%; % Inhibition of Control Agonist Response (Mean n=2) [25]: 4.3%; % of Control Agonist Response (Mean n=2) [25]: -0.4%; inhibition [26]: 4.16%; residual activity [27]: 84%; residual activity [28]: 100%; residual activity [29]: 100%; residual activity [30]: 91%; residual activity [31]: 73%; residual activity [32]: 88%; residual activity [33]: 100%; % Inhibition of Control Agonist Response (Mean n=2) [34]: -2.8%; % of Control Agonist Response (Mean n=2) [34]: 2.6%; residual activity [35]: 100%; residual activity [36]: 100%; residual activity [37]: 100%; residual activity [38]: 100%
O=C(N1CCS(=O)(=O)CC1)N1C[C@H](c2ccc(OC(F)(F)F)cc2)C[C@H](c2nc(C3CC3)no2)C1 [BAY-386]	100	100	100	100	100	100	100	100	94	100	100	92	100	100	99	100	87	97	94	97	residual activity [21]: 55%; residual activity [22]: 100%; residual activity [23]: 100%; residual activity [24]: 100%; % Inhibition of Control Agonist Response (Mean n=2) [25]: 18.8%; % of Control Agonist Response (Mean n=2) [25]: 11.5%; inhibition [26]: 30.8%; residual activity [27]: 100%; residual activity [28]: 100%; residual activity [29]: 100%; residual activity [30]: 100%; residual activity [31]: 100%; residual activity [32]: 79%; residual activity [33]: 100%; % Inhibition of Control Agonist Response (Mean n=2) [34]: 9.6%; % of Control Agonist Response (Mean n=2) [34]: -0.7%; residual activity [35]: 92%; residual activity [36]: 97%; residual activity [37]: 100%; residual activity [38]: 100%
